The source made the active and inactive calls. No cut-off for these calls is given here.
Columns and labels:
[1] = biological target: Programmed cell death protein 1/Programmed cell death 1 ligand 1 (Homo sapiens, UniProt Q9NZQ7); assay: Inhibition of interaction of PD-1/PD-L1 (unknown origin) by HTRF analysis; assay type: protein-complex assay
[2] = biological target: T1, Programmed cell death protein 1/Programmed cell death 1 ligand 1 (Homo sapiens) (UniProt Q15116+Q9NZQ7); assay: Inhibition of PD-1/PD-L1 (unknown origin) interaction in human PBMC cells assessed as increase in IFN-gamma level at 100 nM pretreated with anti-CD3/CD28 and PD-L1 followed by compound addition measured after 72 hrs by ELISA; assay type: cell-based
[3] = Cytotoxicity against human PBMC cells assessed as inhibition of cell viability by CCK8 assay; assay type: toxicity, cell-based
[4] = biological target: T1, Programmed cell death protein 1/Programmed cell death 1 ligand 1 (Homo sapiens); assay: Inhibition of PD-1/PD-L1 (unknown origin) interaction in human PBMC cells assessed as increase in IFN-gamma level at 100 to 1000 nM pretreated with anti-CD3/CD28 and PD-L1 followed by compound addition measured after 72 hrs by ELISA; assay type: cell-based; details: dose 100-1000 nM
[5] = Cytotoxicity against human PBMC cells assessed as inhibition of cell viability at 50 to 5000 nM by CCK8 assay; assay type: toxicity, cell-based; details: 5 µM, dose 50-5000 nM

Sequence of Programmed cell death protein 1/Programmed cell death 1 ligand 1 (Q15116 whole entry): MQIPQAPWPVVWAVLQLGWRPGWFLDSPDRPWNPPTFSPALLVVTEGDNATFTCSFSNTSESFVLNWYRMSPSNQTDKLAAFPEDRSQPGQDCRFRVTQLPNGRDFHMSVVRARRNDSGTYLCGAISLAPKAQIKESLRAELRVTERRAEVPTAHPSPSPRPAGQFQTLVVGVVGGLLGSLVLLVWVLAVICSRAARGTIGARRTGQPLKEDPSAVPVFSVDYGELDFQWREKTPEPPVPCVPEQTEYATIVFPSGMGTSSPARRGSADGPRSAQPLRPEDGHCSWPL
Sequence of Programmed cell death protein 1/Programmed cell death 1 ligand 1 (Q9NZQ7 whole entry): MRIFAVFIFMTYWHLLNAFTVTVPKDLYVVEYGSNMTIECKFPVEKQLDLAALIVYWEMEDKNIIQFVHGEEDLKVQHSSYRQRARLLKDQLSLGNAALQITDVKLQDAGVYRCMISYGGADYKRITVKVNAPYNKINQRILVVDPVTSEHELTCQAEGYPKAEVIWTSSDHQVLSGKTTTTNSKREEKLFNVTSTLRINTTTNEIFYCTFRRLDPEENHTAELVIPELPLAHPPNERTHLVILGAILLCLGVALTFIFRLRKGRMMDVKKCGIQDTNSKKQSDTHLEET

Row | Structure (SMILES) | IC50 [1] | other results
1 | N#Cc1c(-c2ccccc2)cccc1-c1ccc2c(c1)C(=O)NC2 | 1520 nM | 
2 | Cc1c(-c2ccccc2)cccc1-c1ccc2c(c1)CN(C(=O)[C@H]1NCCC1O)C2 (stereo not given in full) | 24.2 nM | 
3 | COC(=O)C[C@H](N)C(=O)N1Cc2ccc(-c3cccc(-c4ccccc4)c3C)cc2C1 | 416 nM | 
4 | Oc1c(-c2ccccc2)cccc1-c1ccc2c(c1)CNC2 | > 10000 nM | 
5 | Cc1c(-c2ccccc2)cccc1-c1ccc2c(c1)CN(C(=O)[C@@H]1CCCN1)C2 | 7.1 nM | 
6 | N#Cc1c(-c2ccccc2)cccc1-c1ccc2c(c1)CNC2 | 47.6 nM | 
7 | Fc1c(-c2ccccc2)cccc1-c1ccc2c(c1)CNC2 | 95.6 nM | 
8 | Cc1c(-c2ccc3c(c2)CNC3)cccc1-c1ccc2c(c1)OCCO2 | 35.8 nM | 
9 | Clc1c(-c2ccccc2)cccc1-c1ccc2c(c1)CNC2 | 9.4 nM | inhibition [2]: Active; IC50 [3]: > 5 µM
10 | O=C([C@@H]1CCCCN1)N1Cc2ccc(-c3cccc(-c4ccccc4)c3Cl)cc2C1 | 11.4 nM | 
11 | Clc1c(-c2ccc3c(c2)CNC3)cccc1-c1ccc2nonc2c1 | 880 nM | 
12 | C[C@H](N)C(=O)N1Cc2ccc(-c3cccc(-c4ccccc4)c3C#N)cc2C1 | 50 nM | 
13 | O=C([C@@H]1CCCN1)N1Cc2ccc(-c3cccc(-c4ccc5c(c4)OCCO5)c3Cl)cc2C1 | 15.6 nM | IC50 [3]: > 5 µM
14 | O=C([C@@H]1CCCCN1)N1Cc2ccc(-c3cccc(-c4ccc5c(c4)OCCO5)c3Cl)cc2C1 | 26.2 nM | 
15 | Cc1c(-c2ccccc2)cccc1-c1ccc2c(c1)CN(C(=O)[C@@H](N)CO)C2 | 94.8 nM | 
16 | Cc1c(-c2ccccc2)cccc1-c1ccc2c(c1)CN(C(=O)[C@@H]1CCCCN1)C2 | 19.3 nM | 
17 | N#Cc1c(-c2ccc3c(c2)CNC3)cccc1-c1ccc2c(c1)OCCO2 | 18.5 nM | 
18 | Cc1c(-c2ccccc2)cccc1-c1ccc2c(c1)CN(C(=O)CN)C2 | 293 nM | 

Row | Structure (SMILES) | IC50 [1] | other results
19 | Cc1c(-c2ccccc2)cccc1-c1ccc2c(c1)C(=O)NC2=O | > 10000 nM | 
20 | N#Cc1c(-c2ccccc2)cccc1-c1ccc2c(c1)CN(C(=O)[C@@H]1CCCN1)C2 | 85.7 nM | 
21 | COc1c(-c2ccccc2)cccc1-c1ccc2c(c1)CNC2 | 115 nM | 
22 | N#Cc1c(-c2ccccc2)cccc1-c1ccc2c(c1)CN(C(=O)[C@@H]1CCCCN1)C2 | 64.2 nM | 
23 | Nc1c(-c2ccccc2)cccc1-c1ccc2c(c1)CNC2 | 194 nM | 
24 | Cc1c(-c2ccccc2)cccc1-c1ccc2c(c1)CN(C(=O)[C@@H](N)CCCCN)C2 | 539 nM | 
25 | N#Cc1c(-c2ccccc2)cccc1-c1ccc2c(c1)CNC2=O | 145 nM | 
26 | Cc1c(-c2ccccc2)cccc1-c1ccc2c(c1)CN(C(=O)[C@H](C)N)C2 | 30.4 nM | 
27 | N#Cc1c(-c2ccccc2)cccc1-c1ccc2c(c1)C(=O)NC2=O | > 10000 nM | 
28 | NCC(=O)N1Cc2ccc(-c3cccc(-c4ccccc4)c3Cl)cc2C1 | 90.3 nM | 
29 | C[C@H](N)C(=O)N1Cc2ccc(-c3cccc(-c4ccccc4)c3Cl)cc2C1 | 12.9 nM | 
30 | C[C@H](N)C(=O)N1Cc2ccc(-c3cccc(-c4ccc5c(c4)OCCO5)c3C#N)cc2C1 | 24.5 nM | 
31 | Cc1c(-c2ccccc2)cccc1-c1ccc2c(c1)CN(C(=O)[C@@H](N)CC(=O)O)C2 | 142 nM | 
32 | O=C([C@@H]1CCCN1)N1Cc2ccc(-c3cccc(-c4ccccc4)c3Cl)cc2C1 | 17.9 nM | 
33 | c1ccc(-c2cccc(-c3ccc4c(c3)CNC4)c2)cc1 | > 10000 nM | 
34 | Cl.Clc1c(-c2ccc3c(c2)CNC3)cccc1-c1ccc2c(c1)OCCO2 | 5.9 nM | inhibition [4]: inactive; Activity [5]: Toxic
35 | Cc1c(-c2ccccc2)cccc1-c1ccc2c(c1)CN(C(=O)[C@@H]1C[C@H](O)CN1)C2 | 84.5 nM | 
